Measured values published in ChEMBL document CHEMBL1122248, “Cloxacepride and related compounds: a new series of orally active antiallergic compounds” (1983).

Columns and labels:
Rattus norvegicus [1] = assay: Tested for PCA activity in rat at 200 mg/kg dose; type: functional
Rattus norvegicus [2] = assay: PCA activity of compound in rat at 100 mg/kg dose; type: functional
Rattus norvegicus [3] = assay: Tested for anti PCA- activity when compound was administered orally 60 min before challenge in exp2; type: functional; settings: po
Rattus norvegicus [4] = assay: Tested for anti PCA- activity when compound was administered orally 60 min before challenge in exp1; type: functional; settings: po
Rattus norvegicus [5] = assay: Tested for PCA activity of compound in rat at 50 mg/kg dose at 60 min challenge time.; type: functional; settings: 1 h
Rattus norvegicus [6] = assay: Tested for anti PCA- activity when compound was administered perorally 60 min before challenge in; type: functional; settings: po
Rattus norvegicus [7] = assay: Tested for antigenic challenge time, time measured was immediate when compound was administered before challenge in rat; Immed = Immediate; type: functional, organism-based
Rattus norvegicus [8] = assay: Tested for PCA activity of compound in rat at 1.0 mg/kg intravenous dose; type: functional
Rattus norvegicus [9] = assay: Tested for PCA activity of compound in rat at 5 mg/kg intravenous dose; type: functional
Rattus norvegicus [10] = assay: Tested for antigenic challenge time, time measured was immediate when compound was administered before challenge in rat;Immed = Immediate; type: functional, organism-based
Rattus norvegicus [11] = assay: Tested for PCA activity of compound in rat at 2.5 mg/kg intravenous dose; type: functional
Rattus norvegicus [12] = assay: Tested for anti PCA- activity when compound was administered intravenously 60 min before challenge in rat; type: functional; settings: iv
Rattus norvegicus [13] = assay: Tested for antigenic challenge time, time measured was immediate when compound was administered before challenge in rat; immediate; type: functional, organism-based
Rattus norvegicus [14] = assay: Tested for PCA activity of compound in rat at 10 mg/kg intravenous dose; type: functional
Rattus norvegicus [15] = assay: Tested for PCA activity of compound in rat at 25 mg/kg dose; type: functional
Rattus norvegicus [16] = assay: Tested for PCA activity of compound in rat at 50 mg/kg dose; type: functional

SMILES | inhibition in vivo at 200 mg/kg (Rattus norvegicus [1]) | inhibition in vivo at 100 mg/kg (Rattus norvegicus [2]) | also measured
CCN(CC)CCNC(=O)c1ccc(NC(=O)COc2ccc(Cl)cc2)cc1 | 0% |  | 
CCN(CC)CCNC(=O)c1cc(Cl)c(NC(=O)COc2ccc(F)cc2)cc1OC | 67% | 33% | 
COc1cc(NC(=O)COc2ccc(Cl)cc2)c(Cl)cc1C(=O)N1CCN(C)CC1 |  | 0% | 
CCN(CC)CCNC(=O)c1ccc(NC(=O)COc2ccc(Cl)cc2)c(Cl)c1.O=C(O)CC(O)(CC(=O)O)C(=O)O | 0% | 14% | 
CCN(CC)CCNC(=O)c1cc(Cl)c(NC(=O)COc2ccc(Cl)cc2)cc1OC.Cl [CLOXACEPRIDE HYDROCHLORIDE] | 75% | 69% | ED50 (Rattus norvegicus [3]): 46.9 mg/kg; ED50 (Rattus norvegicus [4]): 49 mg/kg; inhibition in vivo at 50 mg/kg (Rattus norvegicus [5]): 49%
Cn1c(=O)c2nc[nH]c2n(C)c1=O.O [THEOPHYLLINE] |  |  | ED50 (Rattus norvegicus [6]): 47.2 mg/kg
CCN(CC)CCNC(=O)c1cc(Cl)ccc1NC(=O)COc1ccc(Cl)cc1 |  | 0% | 
CCN(CC)CCNC(=O)c1cc(Cl)c(NC(=O)C(Oc2ccc(Cl)cc2)Oc2ccc(Cl)cc2)cc1OC | 0% |  | 
CCN(CC)CCNC(=O)c1ccc(Cl)c(NC(=O)COc2ccc(Cl)cc2)c1 |  | 7% | 
CCN(CC)CCNC(=O)c1cc(Cl)c(NC(=O)COc2ccccc2)cc1OC | 67% | 47% | 
CCN(CC)CCCNC(=O)c1cc(Cl)c(NC(=O)COc2ccc(Cl)cc2)cc1OC | 20% |  | 
O=C([O-])c1cc(=O)c2c(OCC(O)COc3cccc4oc(C(=O)[O-])cc(=O)c34)cccc2o1.[Na+].[Na+] [CROMOLYN SODIUM] |  |  | Challenge time (Rattus norvegicus [7]): Immed; inhibition in vivo at 1 mg/kg (Rattus norvegicus [8]): 28%; inhibition in vivo at 5 mg/kg (Rattus norvegicus [9]): 78%; Challenge time (Rattus norvegicus [10]): Immed; inhibition in vivo at 2.5 mg/kg (Rattus norvegicus [11]): 58%; ED50 (Rattus norvegicus [12]): 2 mg/kg
CCN(CC)CCNC(=O)c1cc(Cl)c(NC(=O)COc2ccc(OC)cc2)cc1OC.Cl | 33% | 53% | 
CCN(CC)CCNC(=O)c1ccc(NC(=O)COc2ccc(Cl)cc2)c(OC)c1 | 20% |  | 
CCN(CC)CCNC(=O)c1cc(Cl)c(NC(=O)COc2ccc(C)cc2)cc1OC |  | 22% | 
CCN(CC)CCNC(=O)c1cccc(NC(=O)COc2ccc(Cl)cc2)c1 |  | 7% | 
CCN(CC)CCNC(=O)c1cc(Cl)ccc1NC(=O)COc1ccc(F)cc1 |  | 0% | 
CCN(CC)CCNC(=O)c1cc(Cl)c(NC(=O)COc2ccccc2Cl)cc1OC | 0% |  | 
CCN(CC)CCNC(=O)c1cc(Cl)c(NC(=O)COc2ccc(I)cc2)cc1OC | 27% | 0% | 

SMILES | inhibition in vivo at 200 mg/kg (Rattus norvegicus [1]) | inhibition in vivo at 100 mg/kg (Rattus norvegicus [2]) | also measured
CCN(CC)CCNC(=O)c1cc(Cl)c(NC(=O)CSc2ccccc2)cc1OC |  | 26% | 
CCN(CC)CCNC(=O)c1cc(Cl)c(NC(=O)COc2cccc(C(F)(F)F)c2)cc1OC.Cl | 40% | 53% | 
CCN(CC)CCNC(=O)c1ccc(NC(=O)COc2ccccc2)c(OC)c1 | 20% |  | 
CCN(CC)CCNC(=O)c1cc(Cl)c(N)cc1OC [METOCLOPRAMIDE] |  | 14% | Challenge time (Rattus norvegicus [13]): Immediate; inhibition in vivo at 10 mg/kg (Rattus norvegicus [14]): 84%
CCN(CC)CCNC(=O)c1cc(Cl)c(NC(=O)CNc2ccccc2)cc1OC |  | 5% | 
COc1cc(NC(=O)COc2ccc(Cl)cc2)c(Cl)cc1C(=O)NCc1cccnc1 | 20% |  | 
CCN1CCCC1CNC(=O)c1cc(Cl)c(NC(=O)COc2ccc(Cl)cc2)cc1OC (stereo not drawn) |  |  | inhibition in vivo at 25 mg/kg (Rattus norvegicus [15]): 53%; inhibition in vivo at 50 mg/kg (Rattus norvegicus [16]): 60%
CCN(CC)CCNC(=O)c1cc(Cl)c(NC(=O)COc2cccc(Cl)c2Cl)cc1OC | 0% |  | 
CCN(CC)CCNC(=O)c1cc(Cl)c(NC(=O)C(C)Oc2ccc(Cl)cc2)cc1OC.Cl (stereo not drawn) | 32% | 62% | ED50 (Rattus norvegicus [3]): 60.9 mg/kg; ED50 (Rattus norvegicus [4]): 64.5 mg/kg; inhibition in vivo at 50 mg/kg (Rattus norvegicus [16]): 41%
O=C(O)c1ccc2oc3ccc(OCCO)cc3c(=O)c2c1 |  | 71% | 
CCOC(=O)c1cc(Cl)c(NC(=O)COc2ccc(Cl)cc2)cc1OC | 20% | 93% | 
CCN(CC)CCNC(=O)c1cc(Cl)c(NC(=O)COc2ccc(Cl)c(Cl)c2)cc1OC.Cl | 0% | 0% | 
COc1cc(NC(=O)COc2ccc(Cl)cc2)c(Cl)cc1C(=O)N1CCN(C/C=C/c2ccccc2)CC1 |  | 0% | 
COc1cc(NC(=O)COc2ccc(Cl)cc2)c(Cl)cc1C(=O)N1CCN(C(c2ccccc2)c2ccccc2)CC1 |  | 0% | 
COc1cc(NC(=O)COc2ccc(Cl)cc2)c(Cl)cc1NCCN1CCCC1 | 20% |  | 
CCN(CC)CCNC(=O)c1cc(NC(=O)COc2ccc(Cl)cc2)ccc1OC(C)=O |  | 0% | 
COc1cc(NC(=O)COc2ccc(Cl)cc2)c(Cl)cc1C(=O)O | 0% |  | 
CCN(CC)CCNC(=O)c1cc(Cl)c(NC(=O)C(C)(C)Oc2ccc(Cl)cc2)cc1OC.Cl | 20% | 0% | 
CCN(CC)CCNC(=O)c1cc(Cl)c(NC(=O)COc2ccc(Cl)cc2Cl)cc1OC | 0% |  | 
